According to US9157087B2, “Inducible plant promoters and the use thereof” (University of Tennessee Research Foundation, priority 2012, dated 2015):

Tested on: transgenic soybean hairy roots
Assay: Inducibility of ppor RFP reporter by chemical treatments (SA, ethephon, MeJA) in transgenic soybean hairy roots
Format: cell-based, soybean line TN02-275
Details: 4 mg/ml ethephon (ethylene releasing chemical), 3 days; listed as Promoter 2.3

ATATAATTAAGT (listed as DNA, chemistry not fully specified) [Motif 2.3, 12 bp SCN-inducible promoter motif, tested as tetramerized repeat 5′ of a minimal CaMV 35S promoter]
Inducibility by Effectors ERE: induced to a much lower degree
